According to patent publication US12702135B2, “Mitigation of ammonia, odor and greenhouse gases” (Syddansk Universitet, priority 2019, dated 2026):
Values joined by “and” are separate entries in the source; they are usually repeats but may differ in a detail not shown here. Equal values may be shown once.

Experiments:
Klebsiella pneumoniae = assay: pH-based urease activity assay, pure K. pneumoniae culture in M9U minimal medium; assay type: cell-based, Klebsiella pneumoniae subsp. pneumoniae; settings: for Reduction in ureolytic activity: pure K. pneumonia culture
Experimental: (§1) The urease stock was stored at −20° C.
All M9U components except glucose, urea, FeCl2, ZnSO4, and vitamins were mixed, the pH adjusted to 6.8 and the medium was autoclaved. Glucose, urea, FeCl2, ZnSO4, and BME Vitamin solution were sterile-filtered and added aseptically after autoclaving. Urea was added within 24 h before the medium was used.
(§2) The assay consists of a buffered urea solution containing the pH indicator phenol red and the inhibitor to be tested. […] Each compound was screened at three concentrations (10×, 100× and 1000× dilutions of the stock) in triplicate against K. pneumoniae and purified JBU. To this solution ureolytic bacteria or urease is added and the solution is incubated in a plate reader which every 15 minutes measure the absorbance at 557 nm and 630 nm (A557 and A630). Thus, inhibitor and bacteria/urease was not pre-incubated. For microbial urease activity experiments, K. pneumoniae and E. coli were grown overnight in the respective growth media. […] To each well 80 μl bacterial suspension, 100 μl growth media, and 20 μl inhibitor solution was added. Increase in absorbance at 557 nm reflects increasing pH (until saturation of the indicator at pH 8.2) and increase in absorbance at 630 nm reflects bacterial growth (optical density). In the case of ureolytic bacteria or enzymes in urea solution the increase in pH can be ascribed to the production of alkaline NH3. […] In the bacterial assay inhibitors were evaluated based on three parameters: maximal or final pH increase, onset of pH increase and rate of pH increase. The relative maximal pH increase was determined as pHmax=A557-A630. The onset of the pH increase was defined as the point where the ureolytic production of NH3 overcame the buffer capacity resulting in a colour change of the phenol red indicator measured as an absorbance increase at 557 nm. […] For each inhibitor the influence on the bacterial growth was also evaluated by identifying the end of the lag phase (onset of exponential growth), the growth rate and the maximal OD630.

pig manure slurry [1] = assay: total ammoniacal nitrogen (Kjeldahl) in fresh pig manure slurry
Experimental: (§3) Total ammoniacal nitrogen (TAN) was measured in pig manure slurry using the Kjeldahl method. This method consists of adding 32% NaOH to the manure slurry sample in order to turn all NH4^+ in the sample to NH3. The sample is then heated in a closed system causing the NH3 to evaporate into a trap containing H3BO3 forming NH4[B(OH)4]. The remaining acid is then back-titrated with dilute HCl to give the concentration.
(§4) The pig manure slurry was made fresh on the day of measurement by mixing 10 g of feces with 30 ml of urine. Vials of approximately 4.5 ml of manure slurry were prepared. To each vial 0.5 ml of appropriate amounts of inhibitors were added. Controls were vials of 4.5 ml manure slurry with 0.5 ml H2O. After mixing inhibitors and pig manure slurry the vials were sealed and incubated at 25° C. with shaking for 5 h. After incubation, the ureolysis reaction was rapidly quenched by addition of 8 ml 32% NaOH before the sample was transferred to the Kjeldahl instrument for measurements.
as §3, with “the manure sample in” for “the manure slurry sample in”
as §4, with “of either 30 mM TA and 10 mM NaF or 50 mM TA and 10 mM NaF was added. Vials containing 0.5 ml” for “of appropriate amounts”, “of either 51 mg/ml MTA (equal to 30 mM TA on a mass basis) or 85 mg/ml MTA (equal to 50 mM TA on a mass basis) with 10 mM TA and 10 mM NaF” for “of inhibitors”, “were also prepared.” for “were added.”, “ml H2O or 10 mM NaF.” for “ml H2O.”
The pig manure slurry was made fresh on the day of measurement by mixing 10 g of feces with 30 ml of urine. Manure separation was simulated by mixing 10 g of feces with 60 ml of urine for a ratio of 1:6 w:V.
For the “normal” ratio or unseparated manure slurry (1:3) 4.5 ml manure was placed in vials. Then 0.5 ml of TA (50 mM) and NaF (10 mM) were added to the manure slurry. For the separated manure slurry (1:6) 4.5 ml were mixed with 0.5 ml of TA (25 mM) and NaF (10 mM).
Controls were vials of 4.5 ml manure slurry with 0.5 ml H2O at either 1:3 or 1:6 w:V ratios of feces:urine. After mixing inhibitors and pig manure slurry the vials were sealed and incubated at 25° C. with shaking for 5 h. After incubation, the ureolysis reaction was rapidly quenched by addition of 8 ml 32% NaOH before the sample was transferred to the Kjeldahl instrument for measurements.
Tannic acid (TA), sodium fluoride (NaF), chlorogenic acid (CA), lignosulfonic acid (LA), lignin (L), chitosan low molecular weight (CLMW), NaOH, HCl and H3BO3 were purchased from Sigma-Aldrich. The mixed tannins (75% tannins) used in this study (VINOFERM TANNOROUGE) were purchased from Brouwland. The product contains tannins from chestnut. The green tea extract was purchased from Slimming Labs (Groeningen, Netherlands) and consists of 90% polyphenols of which 40% are epigallocatechin gallate. Total ammoniacal nitrogen (TAN) was measured in pig manure slurry using the Kjeldahl method as described in example 2 and example 7. The various compounds were tested as described for MTA in example 7 using appropriate concentrations.
Initial screenings were done in duplicate and the results are given as the average of the two measurements with no standard deviation (SD). […]

jack bean urease = target: T1, jack bean urease (Canavalia ensiformis, UniProt P07374); assay: cell-free urease activity assay (pH-based); assay type: biochemical
T1 construct: purchased Sigma-Aldrich
Experimental: as §1, §2
In urease inhibition assays 5 μl enzyme solution, 175 μl growth media, and 20 μl inhibitor solution were added.

[2] = tested on: 12 days old pig manure slurry; assay: methane production in anaerobic inoculum flasks (GC-FID); settings: 10 mM TA alone, 3 weeks
Experimental: This was done by transferring the TA-NaF treated manure slurry used in example 3 to 100 mL inoculum flasks on day 12. The manure slurry was weighed before inoculation and the headspace was flushed with helium (Linde Group) prior to encapsulation. Gas from the headspace of the inoculum flasks was sampled into 6 mL vacuum sealed exetainer vials (Labco Limited, Lampeter, UK) every week the following three weeks and stored for later CH4 analysis on a GC-FID. After sampling from the inoculum flasks, the pressure in the headspace was equalized with a needle.

[3] = weak acidity due to the numerous phenol groups; cited from earlier work
pig manure slurry [4] = assay: headspace ammonia emissions from pig manure slurry (PTR-MS); settings: Tannic acid 10 mM; cumulated headspace emission, 22-24° C.
Experimental: Ammonia emissions were measured in headspace experiments at ambient temperature (22-24° C.). Pig urine (30 ml) and 10 g of frozen pig feces were thawed and added to each of nine 100 mL reactors and mixed with tannic acid and sodium fluoride in different concentrations. Tannic acid and sodium fluoride was purchased from Sigma-Aldrich. A flow of 0.5 L±10% air/min was continuously applied to the headspace of each reactor with mass flow controllers (Bronkhorst EL-FLOW, Ruurlo, Netherlands). The air flow carried the emitted ammonia from the pig manure slurry in the reactors to a proton transfer reaction mass spectrometer (PTR-MS) (Ionicon Analytik, Innsbruck, Austria) for quantification. A PEEK valve (Bio-Chem Valve Inc., Boonton, NJ, USA) was used to switch between the nine reactors every 12 min. The PTR-MS was operated at a reduced electric field of 142 Townsend (2.15 mbar and 75° C. in the drift tube). Every 24 h, 3 ml of pig urine and 1 g of pig feces was thawed and supplemented to the reactors. Tannic acid and sodium fluoride was also supplemented every 24 h to maintain a constant inhibitor concentration in the manure. For acidification treatment, the manure slurry was acidified with H2SO4 to pH 5.5 every 24 h. The gas emissions were monitored continuously for 12 days. […]

T1 sequence (P07374 whole entry, looked up): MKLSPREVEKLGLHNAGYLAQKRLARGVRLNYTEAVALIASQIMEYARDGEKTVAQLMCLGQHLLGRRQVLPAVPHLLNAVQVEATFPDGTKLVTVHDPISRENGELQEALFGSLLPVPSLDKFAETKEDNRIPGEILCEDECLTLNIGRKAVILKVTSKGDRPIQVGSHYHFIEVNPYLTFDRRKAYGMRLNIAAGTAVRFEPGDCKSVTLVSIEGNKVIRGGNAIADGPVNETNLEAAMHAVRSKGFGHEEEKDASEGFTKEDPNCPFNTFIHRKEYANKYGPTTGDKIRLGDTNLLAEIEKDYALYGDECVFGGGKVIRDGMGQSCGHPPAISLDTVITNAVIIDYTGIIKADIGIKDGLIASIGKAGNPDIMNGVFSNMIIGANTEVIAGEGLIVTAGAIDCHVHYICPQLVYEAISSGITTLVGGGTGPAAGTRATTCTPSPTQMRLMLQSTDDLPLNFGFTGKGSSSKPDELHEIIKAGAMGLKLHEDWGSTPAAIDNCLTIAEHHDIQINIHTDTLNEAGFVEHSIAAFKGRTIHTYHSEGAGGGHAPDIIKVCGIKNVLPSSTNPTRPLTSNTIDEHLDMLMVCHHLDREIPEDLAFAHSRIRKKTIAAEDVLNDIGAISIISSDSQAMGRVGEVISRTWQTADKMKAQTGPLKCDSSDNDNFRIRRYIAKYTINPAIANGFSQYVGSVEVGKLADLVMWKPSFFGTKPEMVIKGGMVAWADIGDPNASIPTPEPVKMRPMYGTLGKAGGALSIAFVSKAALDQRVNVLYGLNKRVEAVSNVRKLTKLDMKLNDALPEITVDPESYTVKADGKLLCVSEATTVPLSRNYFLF

**Q.** For `CC(=O)NO` [AHA, acetohydroxamic acid], which “Reduction in ureolytic activity” value (Klebsiella pneumoniae; AHA 0.2 mM) is on record?
**A.** The value was 14 ± 6%.

**Q.** And the “Reduction in ammonia production (Mean)” value (pig manure slurry [1]; AHA 0.5 mM, pig manure slurry)?
**A.** Its value is 14% and 14 ± 2.3%.

**Q.** And the “Reduction in ammonia production (Mean)” value (pig manure slurry [1]; AHA 1 mM, pig manure slurry)?
**A.** The value was 24 ± 3.4%.

**Q.** For `O=C(/C=C/c1ccc(O)c(O)c1)O[C@@H]1C[C@](O)(C(=O)O)C[C@@H](O)[C@H]1O` [CA, chlorogenic acid], which “Reduction in ammonia production (Mean ± SD)” value (shortened to “Reduction … (Mean ± SD)”) (pig manure slurry [1]; CA 5 mM (2.3 mg/ml), pig manure slurry, duplicate, no SD) is on record?
**A.** Its value is 6%.

**Q.** Which “Reduction in ammonia production” value (pig manure slurry [1]; Cysteamine 1 mM, pig manure slurry, 25° C., 5 h) does the source give for `NCCS` [Cysteamine] here?
**A.** The value was 25%.

**Q.** Which “Reduction in ammonia production” value (pig manure slurry [1]; Iminodiacetic acid 0.8 mM, pig manure slurry, 25° C., 5 h) does the source give for `O=C(O)CNCC(=O)O` [Iminodiacetic acid] here?
**A.** The value was 19%.

**Q.** Which “Reduction in ammonia production” value (pig manure slurry [1]; N-phenylmaleimide 3.9 mM, pig manure slurry, 25° C., 5 h) does the source give for `O=C1C=CC(=O)N1c1ccccc1` [N-phenylmaleimide] here?
**A.** The value was 59%.

**Q.** For `[F-].[Na+]` [NaF, sodium fluoride], which inhibition of ureolysis (Klebsiella pneumoniae; 0.3 mM fluoride alone) is on record?
**A.** Its inhibition of ureolysis is 14.7%.

**Q.** What about the “ureolytic activity (pH change) relative to the uninhibited control” value (Klebsiella pneumoniae; 1.0 mM) of the same compound?
**A.** Its value is 0.

**Q.** And the “reduction of pH change (FIG. 5)” value (Klebsiella pneumoniae; NaF 0.3 mM)?
**A.** Its value is 12-15%.

**Q.** What about the “reduction in initial rate of pH change” value (jack bean urease; 1.0 mM) of the same compound?
**A.** Its value is 89.4±1.0%.

**Q.** And the “reduction of pH change” value (jack bean urease; 1.0 mM)?
**A.** The value was 80.6±3.0%.

**Q.** What about the “Reduction in concentration of NH3” value (pig manure slurry [1]; 1 mM NaF, pig manure slurry, 25° C., 5 h (Example 7)) of the same compound?
**A.** Its value is 17.7 ± 4%.

**Q.** What about the “Reduction … (Mean ± SD)” value (pig manure slurry [1]; NaF 1 mM, pig manure slurry (Example 10)) of the same compound?
**A.** Its value is 9 ± 1.0%.

**Q.** What about the “Reduction in ammonia production (Mean)” value (pig manure slurry [1]; NaF 1 mM, pig manure slurry (Example 11)) of the same compound?
**A.** The value was 9 ± 1.0%.

**Q.** What about the “Reduction in ammonia production” value (pig manure slurry [1]; NaF 1 mM, pig manure slurry, 25° C., 5 h (Example 2)) of the same compound?
**A.** Its value is 24%.

**Q.** What about the “Reduction in ammonia production” value (pig manure slurry [1]; in solution, NaF 1 mM, pig manure slurry, 25° C., 5 h (Example 3)) of the same compound?
**A.** Its value is 8.6%.

**Q.** With `O=C(OC[C@H]1O[C@@H](OC(=O)c2cc(O)c(O)c(OC(=O)c3cc(O)c(O)c(O)c3)c2)[C@H](OC(=O)c2cc(O)c(O)c(OC(=O)c3cc(O)c(O)c(O)c3)c2)[C@@H](OC(=O)c2cc(O)c(O)c(OC(=O)c3cc(O)c(O)c(O)c3)c2)[C@@H]1OC(=O)c1cc(O)c(O)c(OC(=O)c2cc(O)c(O)c(O)c2)c1)c1cc(O)c(O)c(OC(=O)c2cc(O)c(O)c(O)c2)c1` [Tannic acid, tannic acid] as the compound, how does the inhibition at 1000 µM (Klebsiella pneumoniae; Klebsiella pneumoniae, 1.0 mM, read-out: reduction of ureolytic activity (pH change) relative to uninhibited control) read?
**A.** Its inhibition at 1000 µM is 21.3 ± 1.3%.

**Q.** What about the “Reduction in ureolytic activity” value (Klebsiella pneumoniae; TA 0.05 mM, listed as TA) of the same compound?
**A.** Its value is 16% and 16 ± 5%.

**Q.** And the “Reduction in ureolytic activity” value (Klebsiella pneumoniae; TA 0.1 mM)?
**A.** Its value is 9.4 ± 3%.

**Q.** What about the “Reduction in ureolytic activity” value (Klebsiella pneumoniae; TA 0.2 mM) of the same compound?
**A.** Its value is 3.9 ± 6%.

**Q.** What about the “inhibition of ureolytic activity” value (Klebsiella pneumoniae; tannic acid 0-0.8 mM alone) of the same compound?
**A.** The value was 0-12%.

**Q.** And the “ureolytic pH change compared to the uninhibited control (FIG. 5)” value (Klebsiella pneumoniae; tannic acid alone up to 0.8 mM)?
**A.** Its value is “does not reduce the pH change significantly”.

**Q.** What about the “methane production, % of the uninhibited control (FIG. 3B)” value [2] of the same compound?
**A.** The value was 0.01%.

**Q.** What about the pKa [3] of the same compound?
**A.** Its pKa is “around 6”.

**Q.** And the “Reduction in ammonia emissions, 12 days” value (pig manure slurry [4])?
**A.** Its value is 88.4%.

**Q.** And the “pH change (reduced to)” value (jack bean urease; 0.1 mM)?
**A.** Its value is 0.

**Q.** And the “Reduction in ammonia production (Mean)” value (pig manure slurry [1]; TA 3 mM, pig manure slurry (Example 11))?
**A.** Its value is 0 ± 4%.

**Q.** And the “Reduction … (Mean ± SD)” value (pig manure slurry [1]; TA 5 mM (8.5 mg/ml), pig manure slurry (Example 10))?
**A.** The value was 18 ± 1.3%.

**Q.** What about the “Reduction in ammonia production (Mean)” value (pig manure slurry [1]; TA 5 mM, pig manure slurry (Example 11)) of the same compound?
**A.** Its value is 18 ± 1.3%.

**Q.** What about the “Reduction in ammonia production” value (pig manure slurry [1]; Tannic acid 10 mM, pig manure slurry, 25° C., 5 h (Example 2)) of the same compound?
**A.** Its value is 17.6%^.

**Q.** And the “Reduction in ammonia production” value (pig manure slurry [1]; in solution, Tannic acid 5 mM, pig manure slurry, 25° C., 5 h (Example 3))?
**A.** Its value is 17.6%.

**Q.** And the “Reduction in ammonia production” value (pig manure slurry [1]; in solution, Tannic acid 10 mM, pig manure slurry, 25° C., 5 h (Example 3))?
**A.** The value was 35.2%.
